Laboratory results reported in PMC7046293, “Parallel quorum-sensing system in Vibrio cholerae prevents signal interference inside the host” (PLoS Pathogens, 2020).

Molecular target: T1, CqsR-LBD (Vibrio cholerae, UniProt Q9KR16)
T1 construct: gene VC_1831; pET28B His6 tag kept; E. coli BL21(DE3)
Experiment: differential scanning fluorimetry (SYPRO Orange)
Format: binding
Settings: 10 mM ligand; 10 μM protein; PBS pH 7.5, 10% glycerol; Tm without ligand 46 °C
Text: differential scanning fluorimetry (SYPRO Orange) on CqsR-LBD

Structure (SMILES) | Tm (°C)^b
C[C@H](N)CO [L-alaninol, (S)-(+)-2-Amino-1-propanol] | 60 °C
NC(CO)CO [Serinol, 2-Amino-1,3-propanediol] | 53.67 [0.58]
